The results in this text go back to patent publication US20050148627A1, “Benzopyran compounds for use in the treatment and prevention of inflammation related conditions” (priority 2003, published 2005).

“And” between values parts separate entries of the source, which are not always exact repeats. Equal entries are not always repeated.

The assay addresses COX-1 (Homo sapiens, UniProt P23219). In words: biochemical.

Sequence of COX-1 (P23219 24-599): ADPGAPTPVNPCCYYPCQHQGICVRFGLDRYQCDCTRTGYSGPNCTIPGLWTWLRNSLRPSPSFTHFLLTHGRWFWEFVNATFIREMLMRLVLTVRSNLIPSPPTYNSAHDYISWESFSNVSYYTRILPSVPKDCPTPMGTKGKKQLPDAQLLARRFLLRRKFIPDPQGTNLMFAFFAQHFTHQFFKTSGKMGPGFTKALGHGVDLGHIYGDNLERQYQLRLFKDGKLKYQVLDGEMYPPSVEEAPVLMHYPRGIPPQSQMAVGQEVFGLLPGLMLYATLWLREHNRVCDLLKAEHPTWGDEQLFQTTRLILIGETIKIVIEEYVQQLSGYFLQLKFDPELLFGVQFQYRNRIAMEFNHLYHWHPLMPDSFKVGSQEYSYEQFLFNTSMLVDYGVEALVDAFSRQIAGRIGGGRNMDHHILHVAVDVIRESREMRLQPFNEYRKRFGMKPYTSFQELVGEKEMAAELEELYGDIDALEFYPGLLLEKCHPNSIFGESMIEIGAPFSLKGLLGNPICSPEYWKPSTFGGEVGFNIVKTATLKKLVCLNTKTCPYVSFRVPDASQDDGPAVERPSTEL

`CCOc1cc(Br)cc2c1OC(C(F)(F)F)C(C(=O)O)=C2` (stereo not shown) [Example 26, 6-bromo-8-ethoxy-2-(trifluoromethyl)-2H-chromene-3-carboxylic acid] showed an IC50 of more than 100 µM.

Consider `C=C(c1ccccc1)c1ccc2c(c1)OC(C(F)(F)F)C(C(=O)O)=C2` (stereo not shown) [Example 37a, 7-(1-phenylvinyl)-2-(trifluoromethyl)-2H-chromene-3-carboxylic acid], for which inhibition was half-maximal at 69.4 µM (IC50).

Turning to `Cc1ccc(Cc2cc3c(cc2Cl)C=C(C(=O)O)C(C(F)(F)F)O3)c(C)c1` (stereo not shown) [Example 9s, 6-chloro-7-(2,4-dimethylbenzyl)-2-(trifluoromethyl)-2H-chromene-3-carboxylic acid], the IC50 was 5.85 µM and 5.72 µM.

Take `CCCOc1cc(Cl)c2c(c1)C=C(C(=O)O)C(C(F)(F)F)O2` (stereo not shown) [Example 17f, 8-chloro-6-propoxy-2-(trifluoromethyl)-2H-chromene-3-carboxylic acid]: the half-maximal inhibitory concentration (IC50) worked out at 11.8 µM.

For `CC(C)(C)CCOc1c(Cl)cc2c(c1Cl)OC(C(F)(F)F)C(C(=O)O)=C2` (stereo not shown) [Example 1d, 6,8-dichloro-7-(3,3-dimethylbutoxy)-2-(trifluoromethyl)-2H-chromene-3-carboxylic acid], the IC50 turned out to be 49.2 µM.

For the compound `CCCCCCOc1cc(Cl)c2c(c1)C=C(C(=O)O)C(C(F)(F)F)O2` (stereo not shown) [Example 17e, 8-chloro-6-(hexyloxy)-2-(trifluoromethyl)-2H-chromene-3-carboxylic acid], the IC50 is less than 0.137 µM.

`O=C(O)C1=Cc2ccc(Oc3ccc([N+](=O)[O-])cc3F)cc2OC1C(F)(F)F` (stereo not shown) [Example 5a, 7-(2-fluoro-4-nitrophenoxy)-2-(trifluoromethyl)-2H-chromene-3-carboxylic acid]: the concentration for half-maximal inhibition (IC50) is > 100 µM and 264 µM and 199 µM.

The compound `COc1c(Cl)c(Cl)c2c(c1Cl)C=C(C(=O)O)C(C(F)(F)F)O2` (stereo not shown) [Example 20a, 5,7,8-trichloro-6-methoxy-2-(trifluoromethyl)-2H-chromene-3-carboxylic acid] displayed a half-maximal inhibitory concentration (IC50) of less than 0.137 µM.

`NS(=O)(=O)c1ccc(C#Cc2cc(Cl)cc3c2OC(C(F)(F)F)C(C(=O)O)=C3)cc1` (stereo not shown) [Example 39b, 8-{[4-(aminosulfonyl)phenyl]ethynyl}-6-chloro-2-(trifluoromethyl)-2H-chromene-3-carboxylic acid] gave a half-inhibitory concentration (IC50) of 3.93 µM. In other words, the single-digit micromolar range.

Turning to `O=C(O)C1=Cc2cc(Cl)c(CCc3ccc(Cl)cc3)cc2OC1C(F)(F)F` (stereo not shown) [Example 9j, 6-chloro-7-[2-(4-chlorophenyl)ethyl]-2-(trifluoromethyl)-2H-chromene-3-carboxylic acid], the concentration for half-maximal inhibition (IC50) was 11.4 µM and 14 µM.

`COc1cc(Cl)c2c(c1)C=C(C(=O)O)[C@@H](C(F)(F)F)O2` (single isomer, unassigned) [Example 17i]: the IC50 is 81.1 µM and 36.4 µM.

For `O=C(O)C1=Cc2cc(Cl)c(I)c(Cl)c2OC1C(F)(F)F` (stereo not shown) [Example 22, 6,8-dichloro-7-iodo-2-(trifluoromethyl)-2H-chromene-3-carboxylic acid], the IC50 is > 1 µM and 25.6 µM and 12.4 µM.

In turn, `CCc1cc2c(cc1Cc1ccccc1)OC(C(F)(F)F)C(C(=O)O)=C2` (stereo not shown) [Example 42b, 7-benzyl-6-ethyl-2-(trifluoromethyl)-2H-chromene-3-carboxylic acid] returned an IC50 of more than 100 µM.

As to `Cc1cc(C)c2c(c1)C=C(C(=O)O)[C@@H](C(F)(F)F)O2` (single isomer, unassigned) [Example 32b], the half-inhibitory concentration (IC50) was more than 100 µM.

`CC(C)CCSc1cc2c(cc1Cl)C=C(C(=O)O)C(C(F)(F)F)O2` (stereo not shown) [Example 7b, 6-chloro-7-(isopentylthio)-2-(trifluoromethyl)-2H-chromene-3-carboxylic acid]: the IC50 was more than 100 µM.

`Cc1c(Cc2ccccc2)ccc2c1OC(C(F)(F)F)C(C(=O)O)=C2` (stereo not shown) [Example 14b, 7-benzyl-8-methyl-2-(trifluoromethyl)-2H-chromene-3-carboxylic acid] came in with a concentration for half-maximal inhibition (IC50) of less than 0.137 µM.

`O=C(O)C1=Cc2cc(OC(F)(F)F)cc(C#Cc3ccccc3)c2OC1C(F)(F)F` (stereo not shown) [Example 21c, 8-(phenylethynyl)-6-(trifluoromethoxy)-2-(trifluoromethyl)-2H-chromene-3-carboxylic acid]: the IC50 is 19.2 µM and 9.68 µM.

The compound `COc1c(Cl)cc2c(c1OC)OC(C(F)(F)F)C(C(=O)O)=C2` (stereo not shown) [Example 4b, 6-chloro-7,8-dimethoxy-2-(trifluoromethyl)-2H-chromene-3-carboxylic acid] showed a concentration for half-maximal inhibition (IC50) of more than 500 µM.

In the case of `CC(C)CN(C)c1c(Cl)cc2c(c1Cl)OC(C(F)(F)F)C(C(=O)O)=C2` (stereo not shown) [Example 38a, 6,8-dichloro-7-[isobutyl(methyl)amino]-2-(trifluoromethyl)-2H-chromene-3-carboxylic acid], the half-maximal inhibitory concentration (IC50) is less than 0.137 µM.

On to `O=C(O)C1=Cc2cc(Cl)c(Cc3ccccc3)cc2OC1C(F)(F)F` (stereo not shown) [Example 9k, 7-benzyl-6-chloro-2-(trifluoromethyl)-2H-chromene-3-carboxylic acid], for which the IC50 was 0.603 µM and 2.17 µM.

As to `CCCOc1ccc(Cl)c2c1OC(C(F)(F)F)C(C(=O)O)=C2` (stereo not shown) [Example 23a, 5-chloro-8-propoxy-2-(trifluoromethyl)-2H-chromene-3-carboxylic acid], the concentration for half-maximal inhibition (IC50) is more than 500 µM.

Turning to `C=Cc1cc(OC(F)(F)F)cc2c1OC(C(F)(F)F)C(C(=O)O)=C2` (stereo not shown) [Example 21n, 6-(trifluoromethoxy)-2-(trifluoromethyl)-8-vinyl-2H-chromene-3-carboxylic acid], the concentration for half-maximal inhibition (IC50) was less than 0.137 µM.

In the case of `C#Cc1cc(OC(F)(F)F)cc2c1OC(C(F)(F)F)C(C(=O)O)=C2` (stereo not shown) [Example 21f, 8-ethynyl-6-(trifluoromethoxy)-2-(trifluoromethyl)-2H-chromene-3-carboxylic acid], the 50% inhibitory concentration (IC50) is < 0.137 µM and 0.0312 µM.

`O=C(O)C1=Cc2cc(Cl)c(OCc3ccccc3)c(Cl)c2OC1C(F)(F)F` (stereo not shown) [Example 1g, 7-(benzyloxy)-6,8-dichloro-2-(trifluoromethyl)-2H-chromene-3-carboxylic acid] returned an IC50 of 21 µM.

Regarding `CC(C)(C(=O)O)c1cc2c(cc1Cl)C=C(C(=O)O)C(C(F)(F)F)O2` (stereo not shown) [Example 115, 7-(1-carboxy-1-methylethyl)-6-chloro-2-(trifluoromethyl)-2H-chromene-3-carboxylic acid], the 50% inhibitory concentration (IC50) is more than 100 µM.

In turn, `CCCOc1cccc2c1OC(C(F)(F)F)C(C(=O)O)=C2` (stereo not shown) [Example 25e, 8-propoxy-2-(trifluoromethyl)-2H-chromene-3-carboxylic acid] came in with an IC50 of more than 100 µM.

`COc1cc2c(cc1C(C)(C)C)OC(C(F)(F)F)C(C(=O)O)=C2` (stereo not shown) [Example 112, 7-tert-butyl-6-methoxy-2-(trifluoromethyl)-2H-chromene-3-carboxylic acid] gave a concentration for half-maximal inhibition (IC50) of more than 100 µM.

Regarding `COCCOc1ccc2c(c1)OC(C(F)(F)F)C(C(=O)O)=C2` (stereo not shown) [Example 5e, 7-(2-methoxyethoxy)-2-(trifluoromethyl)-2H-chromene-3-carboxylic acid], the half-maximal inhibitory concentration (IC50) is more than 100 µM.

The compound `O=C(O)C1=Cc2cc(Cl)c(C(=O)c3ccccc3)cc2OC1C(F)(F)F` (stereo not shown) [Example 10, 7-benzoyl-6-chloro-2-(trifluoromethyl)-2H-chromene-3-carboxylic acid] registered a concentration for half-maximal inhibition (IC50) of less than 0.137 µM.

The compound `O=C(O)C1=Cc2ccc(Cc3ccc(F)cc3)cc2OC1C(F)(F)F` (stereo not shown) [Example 9bb, 7-(4-fluorobenzyl)-2-(trifluoromethyl)-2H-chromene-3-carboxylic acid] registered an IC50 of 37.4 µM.

Take `O=C(O)C1=Cc2cc(Cl)c(O)c(Cl)c2OC1C(F)(F)F` (stereo not shown) [Example 1a, 6,8-dichloro-7-hydroxy-2-(trifluoromethyl)-2H-chromene-3-carboxylic acid]: the IC50 is more than 500 µM.

In the case of `O=C(O)C1=Cc2cc(OC3CCCCC3)cc(Cl)c2OC1C(F)(F)F` (stereo not shown) [Example 17g, 8-chloro-6-(cyclohexyloxy)-2-(trifluoromethyl)-2H-chromene-3-carboxylic acid], the IC50 was 0.5 µM and 0.392 µM.

With `Cc1c(OCCC(C)C)c(Cl)cc2c1OC(C(F)(F)F)C(C(=O)O)=C2` (stereo not shown) [Example 3h, 6-chloro-7-(isopentyloxy)-8-methyl-2-(trifluoromethyl)-2H-chromene-3-carboxylic acid], the IC50 was 17 µM and 18.5 µM and 18.4 µM.

As to `C=C(C)c1cc2c(cc1Cl)C=C(C(=O)O)C(C(F)(F)F)O2` (stereo not shown) [Example 113, 6-chloro-7-isopropenyl-2-(trifluoromethyl)-2H-chromene-3-carboxylic acid], the IC50 is more than 100 µM.

Compound `Cc1c(Cc2ccccc2)c(Cl)cc2c1OC(C(F)(F)F)C(C(=O)O)=C2` (stereo not shown) [Example 14a, 7-benzyl-6-chloro-8-methyl-2-(trifluoromethyl)-2H-chromene-3-carboxylic acid] had an IC50 of less than 0.137 µM.

Take `COc1c(Cl)c(Cl)c(C)c2c1OC(C(F)(F)F)C(C(=O)O)=C2` (stereo not shown) [Example 29, 6,7-dichloro-8-methoxy-5-methyl-2-(trifluoromethyl)-2H-chromene-3-carboxylic acid]: the IC50 is > 100 µM and 217 µM.

Regarding `O=C(O)C1=Cc2cc(O)cc(Cl)c2OC1C(F)(F)F` (stereo not shown) [Example 17b, 8-chloro-6-hydroxy-2-(trifluoromethyl)-2H-chromene-3-carboxylic acid], the IC50 is > 100 µM and 455 µM.

`CC(C)(C)Oc1cc2c(cc1Cl)C=C(C(=O)O)C(C(F)(F)F)O2` (stereo not shown) [Example 2g, 7-tert-butoxy-6-chloro-2-(trifluoromethyl)-2H-chromene-3-carboxylic acid]: the IC50 was more than 500 µM.

With `O=C(O)C1=Cc2cc(Cl)c(N3CC=CCC3)cc2OC1C(F)(F)F` (stereo not shown) [Example 8e, 6-chloro-7-(3,6-dihydropyridin-1(2H)-yl)-2-(trifluoromethyl)-2H-chromene-3-carboxylic acid], the half-inhibitory concentration (IC50) was > 100 µM and 130 µM.

`O=C(O)C1=Cc2c(Cl)ccc(OCc3ccccc3)c2OC1C(F)(F)F` (stereo not shown) [Example 23c, 8-(benzyloxy)-5-chloro-2-(trifluoromethyl)-2H-chromene-3-carboxylic acid]: the IC50 was 48.4 µM and 62.6 µM.

As for `O=C(O)C1=Cc2ccc(Cc3ccc(F)c(F)c3)cc2OC1C(F)(F)F` (stereo not shown) [Example 9aa, 7-(3,4-difluorobenzyl)-2-(trifluoromethyl)-2H-chromene-3-carboxylic acid], the 50% inhibitory concentration (IC50) was more than 100 µM.

`CC(C)(C#N)c1cc2c(cc1Cl)C=C(C(=O)O)C(C(F)(F)F)O2` (stereo not shown) [Example 118, 6-chloro-7-(1-cyano-1-methylethyl)-2-(trifluoromethyl)-2H-chromene-3-carboxylic acid] had a 50% inhibitory concentration (IC50) of more than 100 µM.

Turning to `COc1ccc2c(c1C)OC(C(F)(F)F)C(C(=O)O)=C2` (stereo not shown) [Example 5c, 7-methoxy-8-methyl-2-(trifluoromethyl)-2H-chromene-3-carboxylic acid], the concentration for half-maximal inhibition (IC50) is > 100 µM and 478 µM.

As usually defined, the IC50 is the concentration that inhibits the measured activity by half.
